Read-outs that look alike come from different tables or passages of the source. One block for each molecule: values may come before it.
Assays:
[1] = system: anti-lamotrigine antibody; assay: Cross-reactivity of polyclonal antibody with lamotrigine metabolites spiked into human serum; format: binding; details: metabolite at 500 μg/mL spiked into human serum; polyclonal antisera
Description: A polyclonal antisera is obtained and an assay is performed in order to determine the amount of cross-reactivity of the polyclonal antibody with lamotrigine and lamotrigine metabolites. A known amount of lamotrigine is used to react with an anti-lamotrigine antibody prepared in accordance with the present invention. The known concentration of lamotrigine is used to calculate the amount of cross-reactivity between the antibody preparation and the metabolites as follows: N-methyl (29); N-oxide (30); and N-2 gluronide (31). The percent of cross-reactivity equals 100 times the observed concentration of lamotrigine in μg/mL, which is then divided by the concentration of added metabolites in μg/mL. No cross-reactivity is observed in specimens containing those metabolites. High concentrations of these compounds are spiked into human serum and tested as samples. The metabolites are assayed and compared to control serum (no lamotrigine). Cross reactivity is calculated using the following equation: [formula]

[2] = Solubility of 74W86 in common solvents; format: physicochemical; details: most common solvents
[3] = cited from earlier work
[4] = responders (>50% seizure reduction)

SMILES: Nc1nc(N)[n+]([O-])nc1-c1cccc(Cl)c1Cl [N-2 oxide]
cross-reactivity [1]: < 3%

solubility [2]: poor solubility in most common solvents
SMILES: Nc1nnc(-c2cccc(Cl)c2Cl)c(NC(=O)CCC(=O)O)n1 [74W86]

SMILES: Nc1nnc(-c2cccc(Cl)c2Cl)c(N)n1 [lamotrigine, 3,5-diamino-6-(2,3-dichlorophenyl)-1,2,4-triazine]
lamotrigine concentration, range ([3]; patients with side effects): 31 to 60 µmol/L
median lamotrigine concentration ([3]; patients with side effects): 62 µmol/L
lamotrigine concentration, range [3, 4]: 8 to 60 µmol/L
median lamotrigine concentration [3, 4]: 31 µmol/L

SMILES: C[n+]1nc(-c2cccc(Cl)c2Cl)c(N)nc1N [N-2 methyl]
cross-reactivity [1]: do not have any cross-reactivity
